Experimental data published in patent US20030134863A1, “Preventives/remedies for alzheimer's disease” (priority 2000, published 2003).
Entries after “also recorded” stand apart in the source; their conditions may differ.

Experiments:
[1] = tested on: blood LH; assay: Suppression of blood LH in castrated monkeys; format: in vivo, cynomolgus monkeys (Macaca fascicularis); conditions: castrated male cynomolgus monkeys
Source text: Suppression of blood LH in castrated monkeys
5-(N-Benzyl-N-methylaminomethyl)-1-(2,6-difluorobenzyl)-6-[4-(3-methoxyureido)phenyl]-3-phenythieno[2,3-d]pyrimidine-2,4(1H,3H)-dione hydrochloride was orally administered to castrated male cynomolgus monkeys (Macaca fascicularis), and blood LH was quantified. The male cynomolgus monkeys, used at 4 years 9 months to 6 years 3 months of age at time of experimentation, had been castrated more than 3 months prior to the examination. Test animals [n=3] were given 30 mg/kg (3 ml/kg) of 5-(N-benzyl-N-methylaminomethyl)-1-(2,6-difluorobenzyl)-6-[4-(3-methoxyureido)phenyl]-3-phenylthieno[2,3-d]pyrimidine-2,4(1H,3H)-dione hydrochloride suspended in 0.5% methylcellulose at a final concentration of 1% by oral administration, and control test animals [n=2] were given 3 ml/kg of the 0.5% methylcellulose dispersant alone by oral administration. At 24 hours and immediately before administration and at 2, 4, 6, 8, 24, and 48 hours after administration, blood was collected for heparinized plasma samples via the femoral vein and immediately stored under freezing conditions.
Plasma LH concentrations were determined by a bioassay using mouse testicular cells. The testicular cells were collected from male BALB/c mice (8 to 9 weeks of age) and washed three times with 1 ml of Dulbecco's modified Eagle medium (DMEM-H) containing 20 mM HEPES and 0.2% BSA per testis. After incubation at 37° C. for 1 hour, the cells were passed through a nylon mesh (70 μm) and dispensed at 8×10^5 cells/tube. After the cells were washed twice with 0.4 ml of DMEM-H, 0.4 ml of a DMEM-H solution containing either equine LH (Sigma), as the standard LH, or monkey plasma, finally diluted up to 300 fold, as the test sample, was added, followed by a reaction at 37° C. for 2 hours. The testosterone concentration in the culture supernatant was determined by a radioimmunoassay (CIS Diagnostics), and the LH concentration in the test monkey plasma was calculated from the standard curve for the standard equine LH. […]

[2] = tested on: LH, FSH concentrations; conditions: patients of Alzheimer's disease, clinical test; cited from earlier work

Row | SMILES | blood LH concentration relative to the value immediately before administration ([1]; 30 mg/kg oral in 0.5% methylcellulose, in 24 hours after administration, n=3) [%] | blood LH concentration at 48 hours after administration ([1]; 30 mg/kg oral, 48 hours after administration) | effect on blood LH concentration (in words) ([1]; 30 mg/kg oral, hydrochloride, 30 mg/kg) | LH, FSH concentrations [2] | progress of Alzheimer's disease [2]
1 | CONC(=O)Nc1ccc(-c2sc3c(c2CN(C)Cc2ccccc2)c(=O)n(-c2ccccc2)c(=O)n3Cc2c(F)cccc2F)cc1.Cl [5-(N-benzyl-N-methylaminomethyl)-1-(2,6-difluorobenzyl)-6-[4-(3-methoxyureido)phenyl]-3-phenylthieno[2,3-d]pyrimidine-2,4(1H,3H)-dione hydrochloride] | ≤ 20 | re-elevation of the blood LH concentration was noted | rapid fall beginning immediately after administration; also recorded: significant decreasing effect on blood LH concentration |  | 
2 | CCNC(=O)[C@@H]1CCCN1C(=O)[C@H](CCCNC(=N)N)NC(=O)[C@H](CC(C)C)NC(=O)[C@@H](CC(C)C)NC(=O)[C@H](Cc1ccc(O)cc1)NC(=O)[C@H](CO)NC(=O)[C@H](Cc1c[nH]c2ccccc12)NC(=O)[C@H](Cc1c[nH]cn1)NC(=O)[C@@H]1CCC(=O)N1 [Leuplin] |  |  |  | lowers the LH, FSH concentrations | inhibits the progress of Alzheimer's disease
